# Laboratory results: ChEMBL document CHEMBL1201862, “PubChem BioAssay data set” (2004)
# Calls of active or inactive are those of the source.
# Experiments:
# [1] = target: T1, Sentrin-specific protease 8 (Homo sapiens, UniProt Q96LD8); assay type: functional
# T1 sequence (Q96LD8 whole entry): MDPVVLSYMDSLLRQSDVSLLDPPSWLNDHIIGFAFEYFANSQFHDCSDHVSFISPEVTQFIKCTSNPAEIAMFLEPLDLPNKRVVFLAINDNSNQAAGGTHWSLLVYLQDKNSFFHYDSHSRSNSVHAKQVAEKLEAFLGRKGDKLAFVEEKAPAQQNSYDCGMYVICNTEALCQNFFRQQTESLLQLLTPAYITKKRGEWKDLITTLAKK
# [2] = target: Tyrosyl-DNA phosphodiesterase 2 (Homo sapiens, UniProt O95551); test: potency against TDP2 phosphodiesterase activity – biochemical, epi absorbance, IC50, dose response (AID 743297)
# [3] = target: T1, Sentrin-specific protease 8; assay type: functional; remark: listed apart in the source
# Major prion protein = Major prion protein (Homo sapiens, UniProt P04156); assay type: functional, cell-based
# cells [4] = test: cells
# [5] = viability loss of HPDE-C7K cells – cell-based, fluorescence, HTS, primary screen (AID 431); assay type: functional; conditions: Homo sapiens
# [6] = potency of ADAM10 substrate cleavage blockers – biochemical, QFRET, dose response (AID 743254);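 further: ADAM10 enzyme with the DM2 quenched FRET peptide as substrate; EDANS fluorescence gain as the protease cuts the substrate; inhibitor potency against ADAM10 proteolytic activity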
# [7] = HPDE-C7 pancreatic duct cell viability loss – fluorescence, HTS (AID 430); assay type: functional, cell-based; conditions: Homo sapiens
# [8] = target: T2, Disintegrin and metalloproteinase domain-containing protein 17 (Homo sapiens, UniProt P78536); test: inhibition of ADAM17 substrate cleavage – biochemical, quenched FRET substrate, counter-screen for ADAM10 exosite inhibitor project, dose response (AID 743253)
# [9] = cytotoxicity in MITF-independent A375 cells – cell-based, CellTiter-Glo luminescence, dry powder, set 4, counter-screen for MITF inhibitor project, dose response (AID 624364); assay type: functional; conditions: A-375;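 further: A375 melanoma cells are MITF independent so this is a counter screen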
# [10] = viability loss in MITF-independent A375 cells – cell-based, CellTiter-Glo luminescence, dry powder, set 2, counter-screen for MITF inhibitor project, dose response (AID 624489); assay type: functional; conditions: A-375;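 further: actives are compounds lowering A375 viability meaning general cytotoxicity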
# Caspase-6 = Caspase-6 (Homo sapiens, UniProt P55212); test: inhibition of CASP6 peptide cleavage – biochemical, VEID-R110 fluorescence, cherry-pick, dose response (AID 720632)
# [11] = antileishmanial activity on axenic amastigotes – plate reader, dry powder, dose response (AID 651892); assay type: functional, cell-based
# [12] = antimalarial activity against erythrocytic parasites – NF54 strain, plate reader, dry powder, dose response (AID 651889); assay type: functional, cell-based
# [13] = host muscle cell viability loss – plate reader, dry powder, counter-screen for T. cruzi inhibitor project, dose response (AID 651895); assay type: functional, cell-based
# [14] = T. cruzi growth inhibition in host cells, dose response, cell-based, plate reader, dry powder, set 2 (AID 652275); assay type: functional
# [15] = Trypanosoma cruzi replication inhibitors in host cells – cell-based, plate reader, dry powder samples, dose response (AID 651845); assay type: functional
# [16] = intracellular Chagas parasite inhibition in myoblasts – Tulahuen strain, L-6 host cells, dry powder, dose response (AID 651890); assay type: functional, cell-based
# [17] = anti-trypanosomal activity in BESM host cells – imaging, CA-I/72 strain, bovine embryo skeletal muscle, dry powder, dose response (AID 651885); assay type: functional, cell-based
# [18] = African trypanosome bloodstream form growth inhibition – STIB900 strain, plate reader, dry powder, dose response (AID 651894); assay type: functional, cell-based
# [19] = loss of viability in HepG2 cells – cell-based, CellTiter-Glo, cherry-picked, cytotoxicity control for Shn3 inhibitor project, dose response (AID 624134); assay type: functional
# [20] = target: COUP transcription factor 2 (Homo sapiens, UniProt P24468); test: Luminescence-based cell-based high throughput dose response assay to identify inhibitors of COUP-TFII (NR2F2).; assay type: functional;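 further: HEK293 cells transiently cotransfected with COUP-TFII expression vector and reporter; luciferase reporter luminescence driven by COUP-TFII from the pX2-168 reporter plasmid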
# [21] = reduction of Shn3 3'UTR-driven luciferase in osteoblasts – cell-based, Clone20 osteoblasts, firefly luciferase, cherry-picked, dose response (AID 624132); assay type: functional;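 further: firefly luciferase luminescence from reporter carrying the Shn3 3'UTR in osteoblasts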
# [22] = non-specific 3'UTR reporter inhibition in Clone20-Shn3RL – cell-based, Renilla luciferase, cherry-picked, counter-screen for Shn3 inhibitor project, dose response (AID 624133); assay type: functional
# INS1 = test: INS-1E survival protection against cytokine death – cell-based, luminescence, retest, dose response (AID 449756); assay type: functional; conditions: Rattus norvegicus;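 further: cell death triggered by IL-1 beta plus TNF-alpha plus IFN-gamma mixture; protective hits raise ATP signal compared with cytokine alone wells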
# [23] = viability of PTEN-deleted HCT116 cells – cell-based, HCT116 PTEN knockout, dose response (AID 1047); assay type: functional;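 further: HCT116 colon tumor cells with PTEN knocked out; cells exposed to compound for 60 hours before readout; potency for loss of cell viability measured by luminescence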
# [24] = viability of HCT116 lacking mutant beta-catenin – cell-based, human colon tumor, dose response (AID 1045); assay type: functional;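 further: HCT116 colon tumor cells with beta catenin knocked out; cells exposed to compound for 60 hours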
# [25] = target: T3, Microphthalmia-associated transcription factor (Homo sapiens, UniProt O75030); test: reducers of TRPM1 reporter luminescence, concentration series – cell-based, SK-MEL-5, cherry-picked, set 3, MITF inhibitor project, dose response (AID 493073); assay type: functional;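 further: SK-MEL-5 melanoma cells with luciferase driven by the MITF target TRPM1 promoter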
# T3 sequence (O75030 whole entry): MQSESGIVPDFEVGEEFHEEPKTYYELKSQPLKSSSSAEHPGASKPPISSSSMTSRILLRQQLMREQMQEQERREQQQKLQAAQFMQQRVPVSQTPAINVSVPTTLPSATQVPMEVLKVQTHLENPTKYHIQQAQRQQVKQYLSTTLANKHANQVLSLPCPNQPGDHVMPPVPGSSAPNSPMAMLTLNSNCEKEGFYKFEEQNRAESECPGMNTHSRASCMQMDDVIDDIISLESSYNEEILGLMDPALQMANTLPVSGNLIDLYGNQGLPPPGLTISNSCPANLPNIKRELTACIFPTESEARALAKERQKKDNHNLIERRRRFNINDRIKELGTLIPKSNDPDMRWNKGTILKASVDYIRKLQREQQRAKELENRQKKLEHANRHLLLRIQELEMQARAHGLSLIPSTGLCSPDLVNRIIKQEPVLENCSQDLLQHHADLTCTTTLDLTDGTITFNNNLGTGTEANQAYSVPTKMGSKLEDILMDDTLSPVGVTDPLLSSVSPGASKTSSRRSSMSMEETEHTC
# HEK293 [26] = test: cells; assay type: functional, cell-based; conditions: Homo sapiens
# HEK293 [27] = test: cells; assay type: functional, cell-based; conditions: Homo sapiens; remark: listed apart in the source
# HEK293 [28] = test: inhibition of NOD1-driven NF-kB reporter – cell-based, luminescence, uHTS, primary screen (AID 1578); assay type: functional; conditions: Homo sapiens
# HEK293 [29] = test: NOD2 signaling inhibitors in MDP-stimulated cells, cell-based, uHTS, luminescence (AID 2001); assay type: functional; conditions: Homo sapiens
# [30] = Dd2 malaria parasite growth inhibition potency – SYBR Green, dry powder samples, dose response (AID 1159566); assay type: functional, cell-based;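 further: potency for growth inhibition with lower SYBR green DNA signal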
# [31] = toxicity to human HepG2 hepatoma cells – cell-based, plate reader, dry powder samples, cytotoxicity control, dose response (AID 1159569); assay type: functional;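 further: inhibitor potency with signal falling toward the positive control level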
# [32] = growth inhibition of PfATP4-mutant resistant parasites – NITD609-resistant line, SYBR Green, dry powder, dose response (AID 1159571); assay type: functional, cell-based;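 further: parasites synchronized at ring stage by sorbitol before testing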
# [33] = growth inhibition of yeast DHODH-expressing 3D7 parasites – SYBR Green, dry powder samples, dose response (AID 1159570); assay type: functional, cell-based;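 further: parasite growth measured after 72 hours of compound exposure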
# [34] = P. falciparum Dd2 growth inhibitors, dose response, SYBR Green, cherry-picked samples (AID 1159567); assay type: functional, cell-based
# [35] = target: Induced myeloid leukemia cell differentiation protein Mcl-1 (Homo sapiens, UniProt Q07820); assay type: functional
# [36] = reduced cellular PGC1a acetyl-lysine signal – cell-based, cherry-picked samples, dose response (AID 720514); assay type: functional;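 further: potency may reflect raised or lowered acetylation signal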
# [37] = target: Hepatocyte nuclear factor 4-alpha (Homo sapiens, UniProt P41235); assay type: functional, cell-based;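 further: biochemical luminescence-based dose-response counterscreen measuring inhibition of HNF4 dimerization, run alongside a screen for blockers of ABHD5–perilipin-5 interaction; split luciferase complementation of HNF4 fusion proteins in cell lysate measuring dimerization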
# Paired box protein Pax-8 = Paired box protein Pax-8 (Homo sapiens, UniProt Q06710); test: PAX8 transcriptional activity inhibition in RMG-I – RMG-I cells, luciferase, cherry-pick, dose response (AID 687027); assay type: functional, cell-based;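 further: luciferase reporter driven by Pax8 target thyroperoxidase promoter measured by SteadyGlo luminescence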
# [38] = viability loss in HepG2 liver cells – cell-based, ATP luminescence, cherry-pick, set 6, cytotoxicity control, dose response (AID 1053125); assay type: functional
# cells [39] = conditions: HEK293
# [40] = target: T2, Disintegrin and metalloproteinase domain-containing protein 17; test: exosite inhibitors of ADAM17, dose response, biochemical (AID 743260)
# [41] = inhibition of ADAM10 peptide cleavage – biochemical, FRET peptide substrate, recombinant human ADAM10, selectivity assay for ADAM17 exosite inhibitor project, dose response (AID 743259);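 further: ADAM10 enzyme cleaving a FRET peptide substrate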
# [42] = toxicity to human hepatoma HepG2 cells – cell-based, cherry-picked samples, cytotoxicity control, dose response (AID 1159577); assay type: functional
# [43] = intracellular Trypanosoma cruzi inhibitors in host cells – cell-based, plate reader, cherry-pick samples, set 3, dose response (AID 651818); assay type: functional;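 further: compounds incubated with infected cells for about four days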
smiles,measurement,setting,value
Cc1ccc(C(=O)Nc2c(-c3ccc(Cl)cc3)n[nH]c2O)cc1,IC50,[1],63.5 µM (inactive)
same,IC50,[2],> 128 µM (inactive)
same,IC50,[3],39.9 µM (active)
COc1ccc(-c2nc3ccc(Br)cn3c2Cc2cccc(F)c2)cc1OC,IC50,Major prion protein,6.96 µM (active)
same,IC50,cells [4],> 138 µM (inactive)
C=C(C)COc1ccc(-c2n[nH]cc2-c2ccccc2OC)c(O)c1,EC50,[5],11.3 µM (active)
same,IC50,[6],10.6 µM (inactive)
same,EC50,[7],13.7 µM (active)
same,IC50,[8],> 69.5 µM (inactive)
O=C1C(NCCCN2CCOCC2)=C(Nc2ccccc2)C(=O)c2ccccc21,AC50,[9],> 70 µM (inactive)
same,AC50,[10],> 70 µM (inactive)
Cc1cccc(NC2=C(NCCO)C(=O)c3ccccc3C2=O)c1,AC50,Caspase-6,9.36 µM (active)
C[C@H](CO)N1C[C@H](C)[C@@H](CN(C)Cc2ccc(Oc3ccccc3)cc2)Oc2c(NC(=O)c3ccncc3)cccc2C1=O,IC50,[11],26.3 µM (inactive)
same,IC50,[12],0.872 µM (inactive)
same,IC50,[13],17.9 µM (inactive)
same,AC50,[14],0.000469 µM (active)
same,AC50,[15],0.00152 µM (active)
same,IC50,[16],0.0215 µM (active)
same,IC50,[17],> 20 µM (inactive)
same,IC50,[18],3.73 µM (inactive)
O=C(O)CCCC(=O)OCCCc1cc2ccccc2c(=O)o1,AC50,Caspase-6,1.51 µM (active)
Cc1ccc(C(=O)NC2CCCc3c2cnn3-c2ccc(F)cc2F)cn1 (configuration not stated),AC50,[19],2.34 µM (active)
same,IC50,[20],3.66 µM (active)
same,AC50,[21],0.921 µM (active)
same,AC50,[22],6.81 µM (active)
same,AC50,INS1,4.93 µM (active)
COc1ccc(NC(=O)NNC(=O)COc2ccc3cc(Br)ccc3c2)cc1OC,IC50,Major prion protein,5.33 µM (active)
same,IC50,cells [4],> 138 µM (inactive)
CCN1c2ccccc2NC2N=C(OC)C(c3ccccc3)C21 (configuration not stated),AC50,[9],50.4 µM (active)
same,AC50,[10],29.7 µM (active)
same,EC50,[23],8.12 µM (active)
same,EC50,[24],7.49 µM (active)
same,AC50,INS1,1.26 µM (active)
same,AC50,[25],7.51 µM (active)
CCN(CC)S(=O)(=O)c1cccc(NC(=O)CNc2cccc(S(=O)(=O)N3CCCC3)c2)c1,AC50,[19],1.11 µM (active)
same,IC50,[20],3.33 µM (active)
same,AC50,[21],0.317 µM (active)
same,AC50,[22],33.8 µM (active)
same,IC50,HEK293 [26],2.55 µM (active)
same,AC50,INS1,3.73 µM (active)
same,IC50,HEK293 [27],14.6 µM (active)
same,EC50,HEK293 [28],0.56 µM (active)
same,IC50,HEK293 [29],3.47 µM (active)
CCC(=O)N1CCC2(CC1)CN(Cc1cc(F)ccc1F)[C@H](CO)c1[nH]c3cc(OC)ccc3c12,AC50,[30],1.96 µM (active)
same,AC50,[31],> 100 µM (inactive)
same,AC50,[32],1.43 µM (active)
same,AC50,[33],1.83 µM (active)
same,AC50,[34],2.98 µM (active)
CN(C)c1ccc(NC(=O)c2cn(-c3ccccc3)nc2-c2cccs2)cc1,IC50,[35],2.48 µM (not active)
same,IC50,[6],> 69.5 µM (inactive)
same,IC50,[8],> 69.5 µM (inactive)
CCN1C(C#N)=C(C#N)N=C(C)CC1(C)C,AC50,[36],30.5 µM (active)
C#CCN(C[C@@H]1[C@@H](OC(=O)NCC2CCCCC2)[C@@H](OC(=O)NCC2CCCCC2)Cn2c(=O)ccc(=O)n21)S(=O)(=O)c1ccc(C)cc1,IC50,[37],29.3 µM (inactive)
same,AC50,[36],1.65 µM (active)
same,AC50,[19],6.53 µM (active)
same,AC50,Paired box protein Pax-8,3.03 µM (active)
same,AC50,[21],2.49 µM (active)
same,AC50,[22],3.96 µM (active)
S=C(NCC1CCCO1)N1CCN(Cc2ccccc2Cl)CC1 (configuration not stated),AC50,[38],38.4 µM (active)
same,AC50,cells [39],> 24 µM (inactive)
c1ccc(-n2c(SCc3cccc4ccccc34)nnc2-c2ccccn2)cc1,IC50,[40],> 69.4 µM (inactive)
same,IC50,[41],24.1 µM (inactive)
COc1ccc(NC(=O)Nc2ccc3c(c2)CC(=O)N([C@H](C)CO)C[C@H](C)[C@@H](CN(C)Cc2ccc(C(=O)Nc4ccccc4N)cc2)O3)cc1,AC50,[30],1.5 µM (active)
same,AC50,[31],> 100 µM (inactive)
same,AC50,[42],> 39 µM (inactive)
same,AC50,[32],2.04 µM (active)
same,AC50,[33],2.3 µM (active)
same,AC50,[34],2.22 µM (active)
C[C@@H]1CN([C@H](C)CO)C(=O)c2cccc(NC(=O)c3ccncc3)c2O[C@H]1CN(C)Cc1ccc(Oc2ccccc2)cc1,IC50,[11],43.7 µM (inactive)
same,IC50,[12],0.82 µM (inactive)
same,IC50,[13],13.3 µM (inactive)
same,AC50,[14],0.0017 µM (active)
same,AC50,[15],0.00521 µM (active)
same,IC50,[16],0.031 µM (active)
same,IC50,[17],0.03 µM (active)
same,AC50,[43],0.08 µM (active)
same,IC50,[18],0.242 µM (active)
